{"source": "patent US20230391729A1", "about": "“SUCCINATE SALTS OF N-(3-(4-(3-(DIISOBUTYLAMINO)PROPYL)PIPERAZIN-1-YL)PROPYL)-1H-BENZO[D]IMIDAZOL-2-AMINE, PREPARATION THEREOF AND USE OF THE SAME” (ALZPROTECT, priority 2020, published 2023)", "key": {"[1]": {"test_system": "tau, phosphorylated on the sites Thr212 and Ser214 (AT100)", "experiment": "Tau phosphorylation (AT100) in cortical neurons after Aβ1-42 injury", "format": "cell-based, rat", "conditions": "Aβ1-42 injury 72 h; doses above 1 nM", "protocol": "(§1) Rat cortical neurons cultured with microglia were cultured as described by Callizot et al. in J Neurosci Res. 2013, 91: 706-716 with modifications to include microglial cells. Pregnant female rats (Rats Wistar; Janvier Labs France) of 15 days of gestation were killed, after a deep anesthesia with CO2, by cervical dislocation. Then, fetuses were collected and immediately placed in ice-cold L15 Leibovitz medium with a 2% penicillin (10,000 U/ml) and streptomycin (10 mg/ml) solution (PS) and 1% bovine serum albumin (BSA). Cortexes were treated for 20 min at 37° C. with a trypsin-EDTA solution at a final concentration of 0.05% trypsin and 0.02% EDTA. The dissociation was stopped by addition of Dulbecco's modified Eagle's medium (DMEM) with 4.5 g/liter of glucose, containing DNAse I grade II (final concentration 0.5 mg/ml) and 10% fetal calf serum (FCS). Cells were mechanically dissociated by three forced passages through the tip of a 10-mL pipette. […] Viable cells were counted in a Neubauer cytometer, using the trypan blue exclusion test. […]\n(§2) Cortical neurons were intoxicated with A3 solutions (see below) after 11 days of culture. […] This solution was gently agitated for 3 days at 37° C. in the dark and immediately used after being properly diluted in control medium to the concentrations used ([…] of Aβ1-42 preparation containing […] of Aβ oligomers (AβO) measured by WB). […]"}, "PGRN": {"test_system": "PGRN", "experiment": "Extracellular progranulin quantification by ELISA after Aβ1-42 injury", "format": "cell-based, rat", "conditions": "Aβ1-42 injury 72 h; 10 nM", "protocol": "as §1, with “EDTA.” for “EDTA. The dissociation was stopped by addition of Dulbecco's modified Eagle's medium (DMEM) with 4.5 g/liter of glucose, containing DNAse I grade II (final concentration 0.5 mg/ml) and 10% fetal calf serum (FCS). Cells were mechanically dissociated by three forced passages through the tip of a 10-mL pipette.”\nas §2\nLevels of PGRN in the culture medium were determined by ELISA (Progranulin (rat) ELISA lit, Adipogen, Coger) according to manufacturer's recommendations. […] Optical density (OD) was assessed by spectrophotometry at 450 nm wavelength with a Glomax apparatus (Promega). […]"}, "[2]": {"experiment": "Variable humidity XRPD (VH-XRPD)", "format": "physicochemical", "conditions": "exposure to 90% RH for up to 1 hour and 30 minutes", "protocol": "VH-XRPD analysis was carried out on a Philips X'Pert Pro Multipurpose diffractometer equipped with a humidity chamber. The samples were scanned between 4 and 35.99° 20 using Cu K radiation (α1 λ=1.54060 Å; α2=1.54443 Å; β=1.39225 Å; α1: α2 ratio=0.5) running in Bragg-Brentano geometry (step size 0.008 °2θ) using 40 kV/40 mA generator settings. Measurements were performed at 50%, 60%, 70%, 80%, 90%. The sample was held at 90% for an hour and 30 minutes. Measurements were taken at 30-minute intervals."}, "[3]": {"test_system": "cortical neurons cultured with microglia", "experiment": "Neuron survival and neurite network (MAP-2) in cortical neurons after Aβ1-42 injury", "format": "cell-based, rat", "conditions": "Aβ1-42 injury 72 h, co-administered; 10 nM to 100 nM", "protocol": "as §1, §2"}}, "data": [{"substance": "N-(3-(4-(3-(diisobutylamino)propyl)piperazin-1-yl)propyl)-1H-benzo[d]imidazol-2-amine sesqui-succinate salt [sesqui-succinate salt Form 1]", "values": [{"measurement": "hyperphosphorylation of Tau (AT100 in MAP-2 neurons)", "setting": "[1]", "value": "significantly reduced"}, {"measurement": "levels of extracellular PGRN", "setting": "PGRN", "value": "significantly increased"}, {"measurement": "VH-XRPD crystalline form", "setting": "[2]", "value": "no change to crystallinity or form"}, {"measurement": "neurite network (MAP-2 staining)", "setting": "[3]", "value": "significantly longer"}, {"measurement": "neuron survival: total number of neurons (MAP-2 staining)", "setting": "[3]", "value": "neuroprotective"}]}]}
